Measured values as given in the supplement of paper PMC10307832.

What follows are cell lines tested with CN1CCC(CC1)OC2=CC(=C(C=C2)NC3=NC=C4C(=N3)N(C(=O)N4C)C5CCCC5)OC [AZ3146] + C[C@]1(O)C[C@@H](c2nc(-c3ccc4ccc(-c5ccccc5)nc4c3)c3c(N)nccn32)C1 [Linsitinib] (partner 1 µM) (assay: relative viability (nuclei count vs DMSO), 5 days (fraction); higher = more cells survive). Settings: first compound 0.08 µM.
Procedure, shortened: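 Lung cancer cell lines were seeded in 1536-well plates and dosed by pin tool the next day, with either a single drug or a fixed anchor-drug dose combined with five library-drug doses (not always all listed) spaced in √10 steps. Five days later, one step fixed the cells and stained their nuclei (final 0.05% Triton X-100, 1% formaldehyde, 1 ug/ml Hoechst), and nuclei were counted on 4× images. Relative viability is the nuclei count in treated wells divided by the count in vehicle wells, and each value is the median of duplicate plates.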

Row | Cell Line | relative viability
1 | NCI-H1666 | 0.738
2 | EKVX | 0.945
3 | NCI-H1755 | 0.885
4 | NCI-H2023 | 0.743
5 | SK-LU-1 | 1.02
6 | PC-3 [JPC-3] | 0.972
7 | LOU-NH91 | 0.954
8 | NCI-H647 | 1.14
9 | NCI-H23 | 0.584
10 | EPLC-272H | 0.988
11 | NCI-H2126 | 0.687
12 | HCC-44 | 0.598
13 | NCI-H1734 | 0.787
14 | NCI-H650 | 0.539
15 | LK-2 | 0.672
16 | NCI-H2228 | 1
17 | HARA | 0.821
18 | Calu-6 | 0.925
19 | COR-L23 | 0.771
20 | LCLC-103H | 1.06
21 | LXF-289 | 0.885
22 | EBC-1 | 0.906
23 | A549 | 0.653
24 | NCI-H1299 | 0.941
25 | IA-LM | 0.729
26 | NCI-H1703 | 0.824
27 | NCI-H1563 | 1.09
28 | HCC-366 | 0.674
29 | ABC-1 | 0.83

Same assay, conditions: first compound 0.253 µM

Row | Cell Line | relative viability
30 | PC-14 | 0.995
31 | NCI-H1666 | 0.862
32 | EKVX | 1
33 | NCI-H1755 | 1.02
34 | NCI-H2023 | 0.694
35 | HCC-78 | 0.476
36 | SK-LU-1 | 1.4
37 | PC-3 [JPC-3] | 0.96
38 | LOU-NH91 | 0.84
39 | NCI-H647 | 1.3
40 | NCI-H23 | 0.563
41 | EPLC-272H | 1.07
42 | NCI-H2126 | 0.667
43 | HCC-44 | 0.618
44 | NCI-H1734 | 0.871
45 | NCI-H650 | 0.805

Row | Cell Line | relative viability
46 | LK-2 | 0.645
47 | NCI-H2228 | 0.867
48 | NCI-H1944 | 1.11
49 | HARA | 0.95
50 | Calu-6 | 0.925
51 | COR-L23 | 1.04
52 | LCLC-103H | 0.978
53 | LXF-289 | 1.01
54 | EBC-1 | 0.707
55 | A549 | 0.653
56 | NCI-H1299 | 0.981
57 | IA-LM | 0.441
58 | NCI-H1703 | 1.15
59 | NCI-H1563 | 1.36
60 | HCC-366 | 0.598
61 | ABC-1 | 0.71

Same assay, conditions: first compound 0.8 µM

Row | Cell Line | relative viability
62 | PC-14 | 0.98
63 | NCI-H1666 | 0.906
64 | EKVX | 0.819
65 | NCI-H1755 | 0.932
66 | NCI-H2023 | 0.612
67 | HCC-78 | 0.416
68 | SK-LU-1 | 1.13
69 | PC-3 [JPC-3] | 1.01
70 | LOU-NH91 | 1.06
71 | NCI-H647 | 1.1
72 | NCI-H23 | 0.616
73 | EPLC-272H | 1.16
74 | NCI-H2126 | 0.761
75 | HCC-44 | 0.685
76 | NCI-H1734 | 0.965
77 | NCI-H650 | 0.8

Row | Cell Line | relative viability
78 | LK-2 | 0.562
79 | NCI-H2228 | 0.657
80 | NCI-H1944 | 1.14
81 | HARA | 1.01
82 | Calu-6 | 0.928
83 | COR-L23 | 0.852
84 | LCLC-103H | 1.16
85 | LXF-289 | 0.965
86 | EBC-1 | 0.899
87 | A549 | 0.593
88 | NCI-H1299 | 0.964
89 | IA-LM | 0.652
90 | NCI-H1703 | 0.637
91 | NCI-H1563 | 1.15
92 | HCC-366 | 0.593
93 | ABC-1 | 0.861

Same assay, conditions: first compound 2.53 µM

Row | Cell Line | relative viability
94 | PC-14 | 1.03
95 | NCI-H1666 | 0.829
96 | EKVX | 1.09
97 | NCI-H1755 | 1.01
98 | NCI-H2023 | 0.677
99 | HCC-78 | 0.532
100 | SK-LU-1 | 1.27
101 | PC-3 [JPC-3] | 0.996
102 | LOU-NH91 | 0.914
103 | NCI-H647 | 1.16
104 | NCI-H23 | 0.656
105 | EPLC-272H | 1.07
106 | NCI-H2126 | 0.739
107 | HCC-44 | 0.718
108 | NCI-H1734 | 0.877
109 | NCI-H650 | 1.26

Row | Cell Line | relative viability
110 | LK-2 | 0.519
111 | NCI-H2228 | 0.628
112 | NCI-H1944 | 1.21
113 | HARA | 0.993
114 | Calu-6 | 0.948
115 | COR-L23 | 1.1
116 | LCLC-103H | 1.13
117 | LXF-289 | 0.957
118 | EBC-1 | 0.879
119 | A549 | 0.571
120 | NCI-H1299 | 0.99
121 | IA-LM | 0.803
122 | NCI-H1703 | 0.872
123 | NCI-H1563 | 1.24
124 | HCC-366 | 0.637
125 | ABC-1 | 0.855

Same assay, conditions: first compound 8 µM

Row | Cell Line | relative viability
126 | PC-14 | 0.941
127 | NCI-H1666 | 0.858
128 | EKVX | 0.95
129 | NCI-H1755 | 0.972
130 | NCI-H2023 | 0.546
131 | HCC-78 | 0.522
132 | SK-LU-1 | 0.547
133 | PC-3 [JPC-3] | 0.932
134 | LOU-NH91 | 0.895
135 | NCI-H647 | 0.434
136 | NCI-H23 | 0.605
137 | EPLC-272H | 1.24
138 | NCI-H2126 | 0.696
139 | HCC-44 | 0.675
140 | NCI-H1734 | 0.934
141 | NCI-H650 | 0.779
142 | LK-2 | 0.729
143 | NCI-H2228 | 0.774
144 | NCI-H1944 | 1.35
145 | HARA | 0.935
146 | Calu-6 | 0.971
147 | COR-L23 | 0.884
148 | LCLC-103H | 1.1
149 | LXF-289 | 0.939
150 | EBC-1 | 0.991
151 | A549 | 0.51
152 | NCI-H1299 | 1.03
153 | IA-LM | 0.626
154 | NCI-H1703 | 0.924
155 | NCI-H1563 | 1.35
